16 compounds from PubChem BioAssay (NCI) can be followed below.

Structures are written as SMILES.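 All cell lines were grown in 96-well plates and treated with compound for 48 hours. TGI is the concentration that stops growth completely.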

The subject of the first assay is HS 578T breast. Kind of assay: NCI anticancer screen, dose series, 48 h.
Consider `CN1CCc2c(sc3ncn(C)c(=N)c23)C1`, for which the TGI was greater than 100 µM.
The compound `c1ccc(NN=C(c2ccccn2)c2ccccn2)nc1` showed a TGI greater than 100 µM.
Turning to `N#Cc1[nH]c(=S)[nH]c1N`, the TGI was greater than 100 µM.
Compound `O=C(N[C@@H](c1ccccc1)[C@@H](O)C(=O)OCc1ccc([N+](=O)[O-])cc1)c1ccccc1` came in with a TGI greater than 100 µM.
The compound `Cc1ccccc1N/C(=C(/C(Cl)=C(Cl)Cl)[N+](=O)[O-])n1nnc2ccccc21` came in with a TGI of 27.1 µM.
As for `COc1ccc(-c2csc(Cc3nc4ccccc4c(=O)n3-c3ccc(Cl)cc3)n2)cc1`, the TGI is greater than 100 µM.
In the case of `COc1ccc2[nH]c3c(c2c1)CC(=S)N1CCCC(CC3=O)C1` (centres undefined), the TGI is greater than 100 µM.
Compound `CN(C)CCNC(=O)c1ccc2nc3c(nc2c1)C(=O)c1ccccc1-3` showed a TGI greater than 100 µM.
`CC1(C)CC(=O)C(C=NC(=O)c2ccncc2)=C(O)C1` showed a TGI greater than 100 µM.
`CCOC(=O)CO/N=C1/C(c2c(O)[nH]c3ccccc23)=Nc2ccccc21` had a TGI greater than 100 µM.

A further assay concerns SK-MEL-28 melanoma. Kind of assay: NCI anticancer screen, dose series, 48 h.
In the case of `CCCCCCCCCCCCC/C=C/[C@@H](O)[C@H](COC1OC(CO)C(OC2OC(CO)C(O)C(OC3(C(=O)O)CC(O)C(NC(C)=O)C(C(O)C(O)CO)O3)C2O)C(O)C1O)N=[N+]=[N-]` (some centres undefined), the TGI worked out at 60.5 µM.
In turn, `COc1ccc2c(c1)C(=O)OCCC2` gave a TGI greater than 100 µM.
Regarding `CCOC(=O)C1(C/C=C/CBr)CCc2ccccc2C1=O` (centres undefined), the TGI is 35.6 µM.
The same measure, in the same setting: next, `COc1cc(C(C)=O)cc(C(=O)N(C(C)C)C(C)C)c1[Si](C)(C)C`: greater than 100 µM.
`CCCCSC1=N/C(=C\c2ccco2)C(Cl)=N1` had a TGI greater than 100 µM.
`CN1CCc2c(sc3ncn(C)c(=N)c23)C1` returned a TGI greater than 100 µM.
In the case of `c1ccc(NN=C(c2ccccn2)c2ccccn2)nc1`, the TGI is greater than 100 µM.
Still for that read-out and setting: in the case of `N#Cc1[nH]c(=S)[nH]c1N` it was greater than 100 µM; in that of `Cc1ccccc1N/C(=C(/C(Cl)=C(Cl)Cl)[N+](=O)[O-])n1nnc2ccccc21`, 30.9 µM.
On to `COc1ccc(-c2csc(Cc3nc4ccccc4c(=O)n3-c3ccc(Cl)cc3)n2)cc1`, for which the TGI was found to be 59.5 µM.
`COc1ccc2[nH]c3c(c2c1)CC(=S)N1CCCC(CC3=O)C1` (centres undefined): the TGI is greater than 100 µM.
With `CN(C)CCNC(=O)c1ccc2nc3c(nc2c1)C(=O)c1ccccc1-3`, the TGI was greater than 100 µM.
Compound `CC1(C)CC(=O)C(C=NC(=O)c2ccncc2)=C(O)C1` yielded a TGI greater than 100 µM.
As for `CCOC(=O)CO/N=C1/C(c2c(O)[nH]c3ccccc23)=Nc2ccccc21`, the TGI was greater than 100 µM.

A further assay relates to M14 melanoma. Kind of assay: NCI anticancer screen, dose series, 48 h.
As for `CCCCCCCCCCCCC/C=C/[C@@H](O)[C@H](COC1OC(CO)C(OC2OC(CO)C(O)C(OC3(C(=O)O)CC(O)C(NC(C)=O)C(C(O)C(O)CO)O3)C2O)C(O)C1O)N=[N+]=[N-]` (some centres undefined), the TGI came to 34.3 µM.
Take `COc1ccc2c(c1)C(=O)OCCC2`: the TGI is greater than 100 µM.
Compound `COc1ccc(-n2cnn3c(=O)c4cn[nH]c4nc23)cc1` yielded a TGI greater than 10 µM.
Same read-out and setting: in the case of `CCOC(=O)C1(C/C=C/CBr)CCc2ccccc2C1=O` (centres undefined) it was 28.2 µM.
`COc1cc(C(C)=O)cc(C(=O)N(C(C)C)C(C)C)c1[Si](C)(C)C` showed a TGI greater than 100 µM.
As for `CCCCSC1=N/C(=C\c2ccco2)C(Cl)=N1`, the TGI was greater than 100 µM.
On to `CN1CCc2c(sc3ncn(C)c(=N)c23)C1`, for which the TGI is greater than 100 µM.
The same measure, in the same setting: next, `Cc1ccccc1N/C(=C(/C(Cl)=C(Cl)Cl)[N+](=O)[O-])n1nnc2ccccc21`: 64.9 µM.
In turn, `COc1ccc(-c2csc(Cc3nc4ccccc4c(=O)n3-c3ccc(Cl)cc3)n2)cc1` yielded a TGI of 65.1 µM.
`COc1ccc2[nH]c3c(c2c1)CC(=S)N1CCCC(CC3=O)C1` (centres undefined): the TGI was greater than 100 µM.
Consider `CN(C)CCNC(=O)c1ccc2nc3c(nc2c1)C(=O)c1ccccc1-3`, for which the TGI was greater than 100 µM.
With `CC1(C)CC(=O)C(C=NC(=O)c2ccncc2)=C(O)C1`, the TGI is greater than 100 µM.
Turning to `CCOC(=O)CO/N=C1/C(c2c(O)[nH]c3ccccc23)=Nc2ccccc21`, the TGI is greater than 100 µM.

Another assay relates to EKVX NSCLC. The experiment in a line: NCI anticancer screen, dose series, 48 h.
With `CCCCCCCCCCCCC/C=C/[C@@H](O)[C@H](COC1OC(CO)C(OC2OC(CO)C(O)C(OC3(C(=O)O)CC(O)C(NC(C)=O)C(C(O)C(O)CO)O3)C2O)C(O)C1O)N=[N+]=[N-]` (some centres undefined), the TGI is greater than 100 µM.
`COc1ccc2c(c1)C(=O)OCCC2`: the TGI was greater than 100 µM.
Same read-out and setting: next, `COc1ccc(-n2cnn3c(=O)c4cn[nH]c4nc23)cc1`: greater than 10 µM.
On to `CCOC(=O)C1(C/C=C/CBr)CCc2ccccc2C1=O` (centres undefined), for which the TGI amounted to 55 µM.
`CCCCSC1=N/C(=C\c2ccco2)C(Cl)=N1` showed a TGI greater than 100 µM.
For the compound `CN1CCc2c(sc3ncn(C)c(=N)c23)C1`, the TGI was greater than 100 µM.
Compound `c1ccc(NN=C(c2ccccn2)c2ccccn2)nc1` displayed a TGI greater than 100 µM.
In turn, `N#Cc1[nH]c(=S)[nH]c1N` came in with a TGI greater than 100 µM.
`O=C(N[C@@H](c1ccccc1)[C@@H](O)C(=O)OCc1ccc([N+](=O)[O-])cc1)c1ccccc1` had a TGI greater than 100 µM.
`Cc1ccccc1N/C(=C(/C(Cl)=C(Cl)Cl)[N+](=O)[O-])n1nnc2ccccc21` gave a TGI of 40.9 µM.
As to `COc1ccc(-c2csc(Cc3nc4ccccc4c(=O)n3-c3ccc(Cl)cc3)n2)cc1`, the TGI worked out at 62.7 µM.
Still for that read-out and setting: next, `COc1ccc2[nH]c3c(c2c1)CC(=S)N1CCCC(CC3=O)C1` (centres undefined): greater than 100 µM; `CN(C)CCNC(=O)c1ccc2nc3c(nc2c1)C(=O)c1ccccc1-3`: greater than 100 µM.
`CC1(C)CC(=O)C(C=NC(=O)c2ccncc2)=C(O)C1` returned a TGI greater than 100 µM.
In turn, `CCOC(=O)CO/N=C1/C(c2c(O)[nH]c3ccccc23)=Nc2ccccc21` had a TGI greater than 100 µM.

The next assay relates to SN12C renal. Kind of assay: NCI anticancer screen, dose series, 48 h.
In the case of `CCCCCCCCCCCCC/C=C/[C@@H](O)[C@H](COC1OC(CO)C(OC2OC(CO)C(O)C(OC3(C(=O)O)CC(O)C(NC(C)=O)C(C(O)C(O)CO)O3)C2O)C(O)C1O)N=[N+]=[N-]` (some centres undefined), the TGI was greater than 100 µM.
Still for that read-out and setting: in the case of `COc1ccc2c(c1)C(=O)OCCC2` it was greater than 100 µM.
In turn, `COc1ccc(-n2cnn3c(=O)c4cn[nH]c4nc23)cc1` returned a TGI greater than 10 µM.
The same measure, in the same setting: in the case of `CCOC(=O)C1(C/C=C/CBr)CCc2ccccc2C1=O` (centres undefined) it was 34.8 µM.
On to `CCCCSC1=N/C(=C\c2ccco2)C(Cl)=N1`, for which the TGI was greater than 100 µM.
Same read-out and setting: next, `CN1CCc2c(sc3ncn(C)c(=N)c23)C1`: greater than 100 µM.
In turn, `c1ccc(NN=C(c2ccccn2)c2ccccn2)nc1` yielded a TGI greater than 100 µM.
The same measure, in the same setting: next, `N#Cc1[nH]c(=S)[nH]c1N`: greater than 100 µM.
Consider `O=C(N[C@@H](c1ccccc1)[C@@H](O)C(=O)OCc1ccc([N+](=O)[O-])cc1)c1ccccc1`, for which the TGI was greater than 100 µM.
`Cc1ccccc1N/C(=C(/C(Cl)=C(Cl)Cl)[N+](=O)[O-])n1nnc2ccccc21` showed a TGI of 31.1 µM.
Compound `COc1ccc2[nH]c3c(c2c1)CC(=S)N1CCCC(CC3=O)C1` (centres undefined) showed a TGI greater than 100 µM.
As for `CN(C)CCNC(=O)c1ccc2nc3c(nc2c1)C(=O)c1ccccc1-3`, the TGI is greater than 100 µM.
As to `CC1(C)CC(=O)C(C=NC(=O)c2ccncc2)=C(O)C1`, the TGI is greater than 100 µM.
As to `CCOC(=O)CO/N=C1/C(c2c(O)[nH]c3ccccc23)=Nc2ccccc21`, the TGI was greater than 100 µM.

A further assay concerns SR leukemia. Kind of assay: NCI anticancer screen, dose series, 48 h.
As to `COc1ccc(-n2cnn3c(=O)c4cn[nH]c4nc23)cc1`, the TGI was greater than 10 µM.
`N#Cc1[nH]c(=S)[nH]c1N` yielded a TGI greater than 100 µM.
Take `CN(C)CCNC(=O)c1ccc2nc3c(nc2c1)C(=O)c1ccccc1-3`: the TGI was found to be 54.7 µM.
